One assay has as its system cytomegalovirus. As to conditions: relative to artesunate; cited from earlier work.
The next assay deals with 23 leukemia cell lines. As to conditions: average over 23 leukemia cell lines, relative to artesunate; cited from earlier work.
For assay [1], the system named is HeLa (human cervical carcinoma). The experiment in a line: MTT cytotoxicity assay, HeLa cell line. Type of assay: cell-based. As to conditions: read-out: IC50 HeLa. The protocol:
(§1) Artesunate and dihydroartemisinin were purchased from AK Scientific (Union City, Calif.). CellTiter 96® Non-Radioactive Cell Proliferation Assay (MTT) reagent was purchased from Promega (Madison, Wis.). A549 (human lung carcinoma), HeLa (human cervical carcinoma), MOLT4 (human T-cell acute lymphoblastic leukemia) were purchased from American Type Culture Collection (Manassas, Va.) and cultured in Ham's F-12 K media supplemented with 10% FBS, 100 μg/ml of penicillin and 100 μg/ml of streptomycin. The culture was maintained at 37° C. in a humidified atmosphere of 5% CO2 and 95% air.
(§2) Both reference and test compounds were dissolved in DMSO in a 10-concentration and 3-fold serial dilution format. 50 nl stock solution of test compounds or 25 nl of reference compounds were delivered from the source plate to the wells of 384-well cell culture plates. 25 μl of culture medium containing 2,000 corresponding cancer cells were added to the wells. The plates were incubated at 37° C. in a humidified atmosphere of 5% CO2 and 95% air for 72 hours. 4 μl of MTT Dye Solution was added to each well and the plates were incubated at 37° C. in a CO2 incubator for 4 hours. After incubation, the formazan was produced in the cells. 25 μl of Solubilization/Stop Solution was added to each well and the plates were incubated for another 1 hour at 37° C. in a CO2 incubator to dissolve the formazan crystals.
(§3) The absorbance of each sample was measured at 590 nm using Envision 2104 Multilabel Reader (PerkinElmer, Santa Clara, Calif.). The cell viability was determined based on the quantification of the color intensity in each culture well. The inhibitory curves were plotted and the IC50 values were calculated using GraphPad Prism 4 program based on a sigmoidal dose-response equation.

The subject of assay [2] is MOLT4 (human T-cell acute lymphoblastic leukemia). Kind of assay: MTT cytotoxicity assay, MOLT4 cell line. The assay is classed as cell-based. As to conditions: read-out: IC50 MOLT4. The protocol: as §1, §2, §3
Background: Formazan colour is commonly taken as a measure of viable cells.

The next assay deals with HepG2 cell line. Kind of assay: MTT cytotoxicity assay, HepG2 cell line. Type of assay: cell-based. The protocol: as §2, §3
Assay [3] has as its system A549 (human lung carcinoma). The experiment in a line: MTT cytotoxicity assay, A549 cell line. Type of assay: cell-based. As to conditions: 72 hours; for inhibition at 0.1 µM / inhibition at 0.25 µM / inhibition at 0.5 µM / inhibition at 1 µM: Homo sapiens. The protocol: as §1, §2, §3
[4] abbreviates: Homo sapiens, MOLT-4, MOLT4, 72 hours, MTT.
Setting [5] is: HepG2, MTT, read-out: IC50 HepG2.
Where [6] appears, read: Homo sapiens, HepG2, MTT, read-out: IC50 HepG2.

pIC50: −log10 of the molar value. Read-outs that look alike come from different tables or passages of the source.

The values below come from patent US11358970B2, “Artemisinin-derived trimers and tetramers and their use thereof” (priority 2017, dated 2022).

With `C[C@@H]1CCC2[C@@H](C)[C@@H](CC(COP(=O)(Oc3ccccc3)Oc3ccccc3)C[C@H]3O[C@@H]4O[C@@]5(C)CCC6[C@H](C)CCC([C@H]3C)[C@]64OO5)O[C@@H]3O[C@@]4(C)CCC1[C@@]23OO4` (some centres unmarked) [ART838], the “fold more potent in inhibiting growth of cytomegalovirus than artesunate” value with cytomegalovirus is reported as 165 fold. Besides, the “folds more potent than artesunate in inhibiting 23 leukemia cell lines (average)” value in the assay with 23 leukemia cell lines is listed as 88 folds.

One may read the pIC50 as the IC50 on a negative log10 scale, so that one unit is a factor of ten. Regarding `C[C@H]1[C@H](OC(=O)CCC(=O)O)O[C@@H]2O[C@@]3(C)CC[C@H]4[C@H](C)CC[C@@H]1[C@@]24OO3` [Artesunate, reference compound], the pIC50 in assay [1] (Homo sapiens, 72 h) was 5.02; in assay [2] (Homo sapiens, MOLT-4, 72 h) it was 6.00; in the assay on HepG2 cell line (Homo sapiens, HepG2, read-out: IC50 HepG2), 4.95.

What is called inhibition is the drop in the measured response relative to a control, in per cent. Low values mean little suppression, high ones strong suppression. `C[C@H]1[C@H](OC(=O)CCC(=O)OCCN(CCOC(=O)CCC(=O)O[C@@H]2O[C@@H]3O[C@]4(C)CC[C@H]5[C@H](C)CC[C@@H]([C@H]2C)[C@@]35OO4)CCOC(=O)CCC(=O)O[C@@H]2O[C@@H]3O[C@]4(C)CC[C@H]5[C@H](C)CC[C@@H]([C@H]2C)[C@@]35OO4)O[C@@H]2O[C@@]3(C)CC[C@H]4[C@H](C)CC[C@@H]1[C@@]24OO3` [Compound 1]: in assay [3] (0.1 μM), the inhibition at 0.1 µM was 10%. Moreover, in assay [3] (0.25 μM), the inhibition at 0.25 µM worked out at 14%. Testing at 0.5 µM in assay [3] (0.5 μM) gave an inhibition of 20%. For the same molecule, in assay [3] (1.0 μM), the inhibition at 1 µM was 47%. The pIC50 in assay [1] (Homo sapiens, 72 hours, MTT) is 5.76; in assay [2] (setting [4]), 6.50.

On to `C[C@@H]1CC[C@H]2[C@@H](C)C(OC(=O)CN(CC(=O)OC3O[C@@H]4O[C@@]5(C)CC[C@H]6[C@H](C)CC[C@@H]([C@H]3C)[C@@]46OO5)CC(=O)OC3O[C@@H]4O[C@@]5(C)CC[C@H]6[C@H](C)CC[C@@H]([C@H]3C)[C@@]46OO5)O[C@@H]3O[C@@]4(C)CC[C@@H]1[C@]32OO4` (some centres unmarked) [Compound 2], for which the “Inhibition (%)” value in assay [3] (0.1 μM) is on record as 12%; in assay [3] (0.25 μM), 20%; in assay [3] (0.5 μM) it was 21%; in assay [3] (1.0 μM), 40%. Besides, the pIC50 is 5.94 in assay [1] (72 hours, MTT) and 6.49 in assay [2] (MOLT4, 72 hours, MTT).

As for `CC1CCC2C(C)C(OC(=O)CCC(=O)OCC(COC(=O)CCC(=O)OC3OC4OC5(C)CCC6C(C)CCC(C3C)C46OO5)OC(=O)CCC(=O)OC3OC4OC5(C)CCC6C(C)CCC(C3C)C46OO5)OC3OC4(C)CCC1C32OO4` (centres unmarked) [Compound 3], the pIC50 in assay [1] (72 hours, MTT) was 6.20; in assay [2] (MOLT4, 72 hours, MTT), 7.22; in the assay with HepG2 cell line (setting [5]), 6.08.

For the molecule `C[C@H]1[C@H](OC(=O)CCC(=O)NC(COC(=O)CCC(=O)O[C@@H]2O[C@@H]3O[C@@]4(C)CC[C@H]5[C@H](C)CC[C@@H]([C@H]2C)[C@@]35OO4)COC(=O)CCC(=O)O[C@@H]2O[C@@H]3O[C@@]4(C)CC[C@H]5[C@H](C)CC[C@@H]([C@H]2C)[C@@]35OO4)O[C@@H]2O[C@@]3(C)CC[C@H]4[C@H](C)CC[C@@H]1[C@@]24OO3` [Compound 4], the pIC50 in the assay with HepG2 cell line (setting [6]) is 5.75.

`C[C@H]1[C@H](OC(=O)CCC(=O)OCC(COC(=O)CCC(=O)O[C@@H]2O[C@@H]3O[C@@]4(C)CC[C@H]5[C@H](C)CC[C@@H]([C@H]2C)[C@@]35OO4)(COC(=O)CCC(=O)O[C@@H]2O[C@@H]3O[C@@]4(C)CC[C@H]5[C@H](C)CC[C@@H]([C@H]2C)[C@@]35OO4)NC(=O)OC(C)(C)C)O[C@@H]2O[C@@]3(C)CC[C@H]4[C@H](C)CC[C@@H]1[C@@]24OO3` [Compound 7] had an inhibition at 0.1 µM in assay [3] (0.1 μM) of 12%. This molecule also yielded an inhibition at 0.25 µM in assay [3] (0.25 μM) of 14%. At 0.5 µM the inhibition in assay [3] (0.5 μM) was 21%. For the same molecule, the inhibition at 1 µM in assay [3] (1.0 μM) worked out at 40%. Besides, the pIC50 was 6.22 in assay [1] (Homo sapiens, 72 hours, MTT) and 6.92 in assay [2] (setting [4]).

`CC(=O)NC(COC(=O)CCC(=O)O[C@@H]1O[C@@H]2O[C@@]3(C)CC[C@H]4[C@H](C)CC[C@@H]([C@H]1C)[C@@]24OO3)(COC(=O)CCC(=O)O[C@@H]1O[C@@H]2O[C@@]3(C)CC[C@H]4[C@H](C)CC[C@@H]([C@H]1C)[C@@]24OO3)COC(=O)CCC(=O)O[C@@H]1O[C@@H]2O[C@@]3(C)CC[C@H]4[C@H](C)CC[C@@H]([C@H]1C)[C@@]24OO3` [Compound 9]: the pIC50 in assay [1] (Homo sapiens, 72 hours, MTT) is 6.44; in assay [2] (setting [4]), 7.18; in the assay with HepG2 cell line (setting [6]), 6.51.

For the molecule `C[C@H]1[C@H](OC(=O)CCC(=O)OCC(COC(=O)CCC(=O)O[C@@H]2O[C@@H]3O[C@@]4(C)CC[C@H]5[C@H](C)CC[C@@H]([C@H]2C)[C@@]35OO4)(COC(=O)CCC(=O)O[C@@H]2O[C@@H]3O[C@@]4(C)CC[C@H]5[C@H](C)CC[C@@H]([C@H]2C)[C@@]35OO4)NC=O)O[C@@H]2O[C@@]3(C)CC[C@H]4[C@H](C)CC[C@@H]1[C@@]24OO3` [Compound 11], in the assay with HepG2 cell line (setting [6]), the pIC50 is 6.26.

As to `C[C@H]1[C@H](OC(=O)CCC(=O)OCC(COC(=O)CCC(=O)O[C@@H]2O[C@@H]3O[C@@]4(C)CC[C@H]5[C@H](C)CC[C@@H]([C@H]2C)[C@@]35OO4)(COC(=O)CCC(=O)O[C@@H]2O[C@@H]3O[C@@]4(C)CC[C@H]5[C@H](C)CC[C@@H]([C@H]2C)[C@@]35OO4)NC(=O)C(F)(F)F)O[C@@H]2O[C@@]3(C)CC[C@H]4[C@H](C)CC[C@@H]1[C@@]24OO3` [Compound 12], in the assay on HepG2 cell line (setting [6]), the pIC50 is 5.11.

For the molecule `C[C@@H]1[C@@H](OC(=O)CCC(=O)NC(COC(=O)CCC(=O)O[C@@H]2O[C@@H]3O[C@@]4(C)CC[C@H]5[C@H](C)CC[C@@H]([C@H]2C)[C@@]35OO4)(COC(=O)CCC(=O)O[C@@H]2O[C@@H]3O[C@@]4(C)CC[C@H]5[C@H](C)CC[C@@H]([C@H]2C)[C@@]35OO4)COC(=O)CCC(=O)O[C@@H]2O[C@@H]3O[C@@]4(C)CC[C@H]5[C@H](C)CC[C@@H]([C@H]2C)[C@@]35OO4)O[C@H]2O[C@@]3(C)CC[C@@H]4[C@@H](C)CC[C@H]1[C@]24OO3` [Compound 13], the pIC50 was 4.85 in assay [1] (Homo sapiens, 72 hours, MTT) and 6.82 in assay [2] (setting [4]).

As to `C[C@H]1[C@H](OC(=O)CC(CC(=O)O[C@@H]2O[C@@H]3O[C@]4(C)CC[C@H]5[C@H](C)CC[C@@H]([C@H]2C)[C@@]35OO4)C(=O)O[C@@H]2O[C@@H]3O[C@]4(C)CC[C@H]5[C@H](C)CC[C@@H]([C@H]2C)[C@@]35OO4)O[C@@H]2O[C@@]3(C)CC[C@H]4[C@H](C)CC[C@@H]1[C@@]24OO3` (some centres unmarked) [Compound 14], in the assay with HepG2 cell line (setting [5]), the pIC50 was 5.89.

Take `C[C@H]1[C@H](OC(=O)CCC(=O)OCCN(CCOC(=O)CCC(=O)O[C@@H]2O[C@@H]3O[C@@]4(C)CC[C@H]5[C@H](C)CC[C@@H]([C@H]2C)[C@@]35OO4)CCN(CCOC(=O)CCC(=O)O[C@@H]2O[C@@H]3O[C@@]4(C)CC[C@H]5[C@H](C)CC[C@@H]([C@H]2C)[C@@]35OO4)CCOC(=O)CCC(=O)O[C@@H]2O[C@@H]3O[C@@]4(C)CC[C@H]5[C@H](C)CC[C@@H]([C@H]2C)[C@@]35OO4)O[C@@H]2O[C@@]3(C)CC[C@H]4[C@H](C)CC[C@@H]1[C@@]24OO3` [Compound 15]: the pIC50 in assay [1] (Homo sapiens, 72 hours, MTT) was 4.45; in assay [2] (setting [4]) it was 6.56.

For `C[C@H]1[C@H](OC(=O)CCC(=O)OCCN(CCO)CCN(CCOC(=O)CCC(=O)O[C@@H]2O[C@@H]3O[C@@]4(C)CC[C@H]5[C@H](C)CC[C@@H]([C@H]2C)[C@@]35OO4)CCOC(=O)CCC(=O)O[C@@H]2O[C@@H]3O[C@@]4(C)CC[C@H]5[C@H](C)CC[C@@H]([C@H]2C)[C@@]35OO4)O[C@@H]2O[C@@]3(C)CC[C@H]4[C@H](C)CC[C@@H]1[C@@]24OO3` [Compound 16], the pIC50 was 5.95 in assay [1] (Homo sapiens, 72 hours, MTT) and 6.66 in assay [2] (setting [4]).

For the molecule `C[C@H]1[C@@H](O)O[C@@H]2O[C@@]3(C)CC[C@H]4[C@H](C)CC[C@@H]1[C@@]24OO3` [Dihydroartemisinin, reference compound], in assay [3] (0.25 μM), at 0.25 µM the inhibition was 5%. The inhibition at 0.5 µM in assay [3] (0.5 μM) is 10%. Further, in assay [3] (1.0 μM), the inhibition at 1 µM amounted to 20%. The pIC50 is 5.03 in assay [1] (Homo sapiens, 72 hours, MTT) and 6.17 in assay [2] (setting [4]).
